Source: ChEMBL document CHEMBL1149912, “Chemical fragments as foundations for understanding target space and activity prediction” (J Med Chem, 2008)
Values belong to the compound of their own block, whether it stands above or below them.

Legend:
[1] = biological target: Stromelysin-1 (Homo sapiens) (UniProt P08254); assay: Inhibition of MMP3
[2] = biological target: Mitogen-activated protein kinase 14 (Homo sapiens) (UniProt Q16539); assay: Inhibition of MAPK14
[3] = biological target: T1, Renin (Homo sapiens) (UniProt P00797); assay: Inhibition of REN
T1 sequence (whole entry): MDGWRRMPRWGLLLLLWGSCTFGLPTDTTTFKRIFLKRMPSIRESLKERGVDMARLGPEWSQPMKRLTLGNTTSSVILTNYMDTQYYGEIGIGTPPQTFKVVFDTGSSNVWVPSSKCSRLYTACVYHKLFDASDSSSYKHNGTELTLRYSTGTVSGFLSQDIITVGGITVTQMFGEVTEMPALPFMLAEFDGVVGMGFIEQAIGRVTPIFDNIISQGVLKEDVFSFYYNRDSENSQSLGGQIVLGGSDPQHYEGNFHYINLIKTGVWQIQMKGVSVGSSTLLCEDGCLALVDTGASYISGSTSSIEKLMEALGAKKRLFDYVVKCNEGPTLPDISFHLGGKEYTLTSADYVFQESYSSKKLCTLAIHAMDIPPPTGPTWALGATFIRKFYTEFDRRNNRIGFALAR

[4] = biological target: Prothrombin (Homo sapiens) (UniProt P00734); assay: Inhibition of thrombin
[5] = biological target: Aldo-keto reductase family 1 member B1 (Homo sapiens) (UniProt P15121); assay: Inhibition of AKR1B1
[6] = biological target: Cathepsin B (Homo sapiens) (UniProt P07858); assay: Inhibition of CTSB
[7] = biological target: Neprilysin (Homo sapiens) (UniProt P08473); assay: Inhibition of MME
[8] = biological target: T2, Cholecystokinin receptor type A (Homo sapiens) (UniProt P32238); assay: Inhibition of CCKAR
T2 sequence (whole entry): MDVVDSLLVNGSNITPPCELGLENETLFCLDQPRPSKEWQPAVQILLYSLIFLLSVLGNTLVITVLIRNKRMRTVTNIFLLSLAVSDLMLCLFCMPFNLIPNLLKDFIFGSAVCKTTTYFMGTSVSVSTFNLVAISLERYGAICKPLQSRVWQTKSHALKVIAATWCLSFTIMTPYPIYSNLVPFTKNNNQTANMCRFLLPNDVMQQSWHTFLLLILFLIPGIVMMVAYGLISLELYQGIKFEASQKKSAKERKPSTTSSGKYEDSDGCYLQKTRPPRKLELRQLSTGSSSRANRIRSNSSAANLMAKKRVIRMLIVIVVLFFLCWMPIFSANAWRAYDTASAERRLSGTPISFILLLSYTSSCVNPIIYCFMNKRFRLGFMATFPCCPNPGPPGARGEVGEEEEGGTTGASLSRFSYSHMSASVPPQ

[9] = tested on: NMDA receptor subunit 1, GRIN1; assay: Inhibition of GRIN1
[10] = biological target: Leukotriene B4 receptor 1 (Homo sapiens) (UniProt Q15722); assay: Inhibition of LTB4R
[11] = biological target: T3, Glucocorticoid receptor (Homo sapiens) (UniProt P04150); assay: Inhibition of NR3C1
T3 sequence (whole entry): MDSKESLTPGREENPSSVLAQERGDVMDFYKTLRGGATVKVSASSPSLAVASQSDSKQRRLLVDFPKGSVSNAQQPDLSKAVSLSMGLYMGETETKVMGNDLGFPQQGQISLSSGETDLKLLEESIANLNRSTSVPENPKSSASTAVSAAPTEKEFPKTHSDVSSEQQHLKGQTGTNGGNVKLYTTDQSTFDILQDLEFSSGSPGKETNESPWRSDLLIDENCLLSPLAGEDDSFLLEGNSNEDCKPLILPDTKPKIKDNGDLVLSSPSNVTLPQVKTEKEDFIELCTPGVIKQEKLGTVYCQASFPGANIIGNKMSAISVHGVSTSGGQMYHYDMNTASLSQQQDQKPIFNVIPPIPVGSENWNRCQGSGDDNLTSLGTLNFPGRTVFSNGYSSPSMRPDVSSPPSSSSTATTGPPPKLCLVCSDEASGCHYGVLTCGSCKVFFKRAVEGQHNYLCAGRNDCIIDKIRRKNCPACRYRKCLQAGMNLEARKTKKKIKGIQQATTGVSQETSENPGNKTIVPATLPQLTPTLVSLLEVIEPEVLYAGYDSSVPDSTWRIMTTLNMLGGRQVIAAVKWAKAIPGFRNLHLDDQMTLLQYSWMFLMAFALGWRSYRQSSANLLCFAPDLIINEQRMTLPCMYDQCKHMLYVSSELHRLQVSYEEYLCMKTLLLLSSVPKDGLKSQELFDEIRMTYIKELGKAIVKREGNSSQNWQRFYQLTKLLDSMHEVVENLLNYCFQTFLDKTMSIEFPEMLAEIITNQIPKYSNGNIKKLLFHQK

[12] = biological target: Voltage-dependent N-type calcium channel subunit alpha-1B (Homo sapiens) (UniProt Q00975); assay: Inhibition of CACNA1B
[13] = biological target: Kappa-type opioid receptor (Homo sapiens) (UniProt P41145); assay: Inhibition of OPRK1
[14] = biological target: Muscarinic acetylcholine receptor M3 (Homo sapiens) (UniProt P20309); assay: Inhibition of CHRM3
[15] = biological target: Sodium-dependent dopamine transporter (Homo sapiens) (UniProt Q01959); assay: Inhibition of SLC6A3
[16] = biological target: T4, Prostaglandin D2 receptor 2 (Homo sapiens) (UniProt Q9Y5Y4); assay: Inhibition of GPR44
T4 sequence (whole entry): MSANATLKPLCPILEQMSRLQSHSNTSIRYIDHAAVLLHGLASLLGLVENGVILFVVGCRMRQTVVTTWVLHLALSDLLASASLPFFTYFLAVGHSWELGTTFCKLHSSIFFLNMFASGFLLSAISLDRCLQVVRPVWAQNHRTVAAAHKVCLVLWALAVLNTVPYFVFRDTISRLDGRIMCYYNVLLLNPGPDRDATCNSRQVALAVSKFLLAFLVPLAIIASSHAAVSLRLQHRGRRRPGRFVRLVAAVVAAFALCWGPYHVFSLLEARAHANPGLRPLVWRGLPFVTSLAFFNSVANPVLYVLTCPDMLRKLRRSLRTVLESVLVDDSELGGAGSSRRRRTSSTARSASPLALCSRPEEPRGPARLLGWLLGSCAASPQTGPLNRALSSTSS

[17] = biological target: Metabotropic glutamate receptor 2 (Homo sapiens) (UniProt Q14416); assay: Inhibition of GRM2

Sequence of Leukotriene B4 receptor 1 (Homo sapiens) (Q15722 whole entry): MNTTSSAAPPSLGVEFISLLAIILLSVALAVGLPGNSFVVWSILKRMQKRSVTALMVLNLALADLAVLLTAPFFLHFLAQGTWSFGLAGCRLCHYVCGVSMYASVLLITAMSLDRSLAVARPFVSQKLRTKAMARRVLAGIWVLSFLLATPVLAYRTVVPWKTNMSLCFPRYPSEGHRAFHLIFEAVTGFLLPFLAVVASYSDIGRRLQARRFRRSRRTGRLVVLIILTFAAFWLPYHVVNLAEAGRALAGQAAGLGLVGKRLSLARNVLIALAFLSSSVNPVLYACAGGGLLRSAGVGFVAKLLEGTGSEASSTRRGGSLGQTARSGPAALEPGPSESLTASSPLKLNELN
Sequence of Voltage-dependent N-type calcium channel subunit alpha-1B (Homo sapiens) (Q00975 whole entry, looked up): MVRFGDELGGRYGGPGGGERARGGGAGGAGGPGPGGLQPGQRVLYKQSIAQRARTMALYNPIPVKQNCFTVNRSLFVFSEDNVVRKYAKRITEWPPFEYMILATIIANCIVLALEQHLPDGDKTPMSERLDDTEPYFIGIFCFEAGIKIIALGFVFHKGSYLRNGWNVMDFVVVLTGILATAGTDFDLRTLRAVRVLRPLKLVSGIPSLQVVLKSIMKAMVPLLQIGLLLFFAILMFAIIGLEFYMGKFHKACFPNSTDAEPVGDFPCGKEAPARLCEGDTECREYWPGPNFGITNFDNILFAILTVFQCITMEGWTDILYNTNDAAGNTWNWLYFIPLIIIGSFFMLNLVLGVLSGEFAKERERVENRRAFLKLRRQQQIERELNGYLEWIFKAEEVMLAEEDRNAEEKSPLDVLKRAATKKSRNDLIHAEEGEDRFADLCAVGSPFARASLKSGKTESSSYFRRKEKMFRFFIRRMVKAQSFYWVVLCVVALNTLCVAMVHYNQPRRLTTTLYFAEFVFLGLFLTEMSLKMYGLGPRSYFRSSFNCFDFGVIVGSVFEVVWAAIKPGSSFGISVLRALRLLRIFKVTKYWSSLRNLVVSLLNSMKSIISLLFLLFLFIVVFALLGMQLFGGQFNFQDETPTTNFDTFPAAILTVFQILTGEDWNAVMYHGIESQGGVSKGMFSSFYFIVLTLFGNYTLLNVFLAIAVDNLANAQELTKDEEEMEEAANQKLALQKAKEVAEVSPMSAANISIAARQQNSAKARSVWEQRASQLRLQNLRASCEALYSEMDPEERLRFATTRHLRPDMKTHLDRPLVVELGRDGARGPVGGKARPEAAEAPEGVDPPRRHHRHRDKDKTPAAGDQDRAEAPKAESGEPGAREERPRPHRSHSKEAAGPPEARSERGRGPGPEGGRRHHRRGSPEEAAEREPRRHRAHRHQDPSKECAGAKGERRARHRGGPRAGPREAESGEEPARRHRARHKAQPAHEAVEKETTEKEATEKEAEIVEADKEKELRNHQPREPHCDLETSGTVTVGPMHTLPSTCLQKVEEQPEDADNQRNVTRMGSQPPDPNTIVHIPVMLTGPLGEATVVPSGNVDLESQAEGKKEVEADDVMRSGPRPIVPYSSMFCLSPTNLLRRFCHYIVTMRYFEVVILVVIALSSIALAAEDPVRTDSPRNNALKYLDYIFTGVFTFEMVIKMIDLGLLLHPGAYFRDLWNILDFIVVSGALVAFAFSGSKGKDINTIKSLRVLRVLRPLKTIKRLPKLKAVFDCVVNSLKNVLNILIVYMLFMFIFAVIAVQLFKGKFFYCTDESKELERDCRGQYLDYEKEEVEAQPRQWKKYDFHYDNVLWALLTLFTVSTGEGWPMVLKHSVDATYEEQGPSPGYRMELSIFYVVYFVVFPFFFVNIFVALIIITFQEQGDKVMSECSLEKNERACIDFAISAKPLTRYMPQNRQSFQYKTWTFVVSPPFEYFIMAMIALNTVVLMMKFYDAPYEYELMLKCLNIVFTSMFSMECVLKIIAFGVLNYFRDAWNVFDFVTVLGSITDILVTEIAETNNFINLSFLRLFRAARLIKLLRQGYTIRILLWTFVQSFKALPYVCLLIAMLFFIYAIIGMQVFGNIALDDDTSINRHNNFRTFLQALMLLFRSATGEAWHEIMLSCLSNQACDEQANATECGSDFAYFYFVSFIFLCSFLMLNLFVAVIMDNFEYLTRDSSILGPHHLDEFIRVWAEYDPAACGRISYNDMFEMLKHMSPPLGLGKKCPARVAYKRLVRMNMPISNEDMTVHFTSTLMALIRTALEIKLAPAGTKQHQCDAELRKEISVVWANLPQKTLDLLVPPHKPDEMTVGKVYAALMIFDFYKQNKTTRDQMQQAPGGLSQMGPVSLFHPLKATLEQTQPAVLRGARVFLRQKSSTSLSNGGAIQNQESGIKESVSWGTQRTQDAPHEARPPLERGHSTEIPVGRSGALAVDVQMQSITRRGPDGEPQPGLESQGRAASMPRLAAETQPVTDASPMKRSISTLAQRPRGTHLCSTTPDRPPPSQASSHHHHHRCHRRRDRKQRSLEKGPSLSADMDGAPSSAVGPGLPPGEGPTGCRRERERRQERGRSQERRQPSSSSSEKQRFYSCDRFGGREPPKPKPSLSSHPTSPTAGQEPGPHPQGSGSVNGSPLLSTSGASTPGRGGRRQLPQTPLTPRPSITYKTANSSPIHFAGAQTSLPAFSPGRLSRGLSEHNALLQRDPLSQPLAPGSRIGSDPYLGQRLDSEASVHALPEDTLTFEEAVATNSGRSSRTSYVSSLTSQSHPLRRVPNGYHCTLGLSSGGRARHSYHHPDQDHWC
Sequence of Neprilysin (Homo sapiens) (P08473 whole entry): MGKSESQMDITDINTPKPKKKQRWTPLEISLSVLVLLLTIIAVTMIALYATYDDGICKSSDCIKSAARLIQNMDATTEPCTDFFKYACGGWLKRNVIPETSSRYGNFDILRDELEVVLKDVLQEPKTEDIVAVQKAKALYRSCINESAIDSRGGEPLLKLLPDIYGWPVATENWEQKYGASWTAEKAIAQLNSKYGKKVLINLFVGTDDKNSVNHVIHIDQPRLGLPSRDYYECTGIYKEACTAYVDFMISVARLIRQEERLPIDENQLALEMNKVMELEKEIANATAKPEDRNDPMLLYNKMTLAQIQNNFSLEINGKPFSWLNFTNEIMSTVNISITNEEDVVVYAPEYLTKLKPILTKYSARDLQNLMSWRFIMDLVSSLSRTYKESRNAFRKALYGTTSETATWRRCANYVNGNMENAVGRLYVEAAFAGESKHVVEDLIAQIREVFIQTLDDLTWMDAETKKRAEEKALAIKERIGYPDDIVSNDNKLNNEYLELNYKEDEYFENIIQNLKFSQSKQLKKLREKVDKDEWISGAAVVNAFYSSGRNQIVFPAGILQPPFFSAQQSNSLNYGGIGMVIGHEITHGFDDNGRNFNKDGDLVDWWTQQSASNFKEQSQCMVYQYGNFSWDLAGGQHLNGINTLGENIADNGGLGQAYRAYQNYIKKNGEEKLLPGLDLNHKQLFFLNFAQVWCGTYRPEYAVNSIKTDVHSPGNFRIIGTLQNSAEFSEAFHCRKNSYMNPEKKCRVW
Sequence of Stromelysin-1 (Homo sapiens) (P08254 100-477 limits assumed): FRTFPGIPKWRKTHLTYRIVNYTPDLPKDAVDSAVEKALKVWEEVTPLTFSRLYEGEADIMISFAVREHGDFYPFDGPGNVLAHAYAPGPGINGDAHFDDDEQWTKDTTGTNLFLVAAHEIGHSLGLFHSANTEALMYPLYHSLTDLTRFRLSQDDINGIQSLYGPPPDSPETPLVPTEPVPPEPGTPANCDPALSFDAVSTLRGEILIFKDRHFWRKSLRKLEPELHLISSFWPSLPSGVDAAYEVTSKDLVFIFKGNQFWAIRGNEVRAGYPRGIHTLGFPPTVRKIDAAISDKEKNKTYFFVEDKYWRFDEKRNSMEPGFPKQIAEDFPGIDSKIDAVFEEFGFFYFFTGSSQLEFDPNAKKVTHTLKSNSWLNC
Sequence of Mitogen-activated protein kinase 14 (Homo sapiens) (Q16539 whole entry): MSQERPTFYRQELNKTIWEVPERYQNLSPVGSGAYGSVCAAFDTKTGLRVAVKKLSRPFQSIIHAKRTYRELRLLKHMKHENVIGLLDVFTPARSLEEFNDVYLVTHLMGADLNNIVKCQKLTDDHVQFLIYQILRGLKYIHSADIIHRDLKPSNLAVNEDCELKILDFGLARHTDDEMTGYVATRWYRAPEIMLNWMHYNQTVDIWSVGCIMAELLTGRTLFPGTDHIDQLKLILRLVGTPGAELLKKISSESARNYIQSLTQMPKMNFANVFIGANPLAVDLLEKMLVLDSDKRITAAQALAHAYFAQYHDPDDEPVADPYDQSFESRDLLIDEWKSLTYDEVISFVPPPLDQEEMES
Sequence of Sodium-dependent dopamine transporter (Homo sapiens) (Q01959 whole entry): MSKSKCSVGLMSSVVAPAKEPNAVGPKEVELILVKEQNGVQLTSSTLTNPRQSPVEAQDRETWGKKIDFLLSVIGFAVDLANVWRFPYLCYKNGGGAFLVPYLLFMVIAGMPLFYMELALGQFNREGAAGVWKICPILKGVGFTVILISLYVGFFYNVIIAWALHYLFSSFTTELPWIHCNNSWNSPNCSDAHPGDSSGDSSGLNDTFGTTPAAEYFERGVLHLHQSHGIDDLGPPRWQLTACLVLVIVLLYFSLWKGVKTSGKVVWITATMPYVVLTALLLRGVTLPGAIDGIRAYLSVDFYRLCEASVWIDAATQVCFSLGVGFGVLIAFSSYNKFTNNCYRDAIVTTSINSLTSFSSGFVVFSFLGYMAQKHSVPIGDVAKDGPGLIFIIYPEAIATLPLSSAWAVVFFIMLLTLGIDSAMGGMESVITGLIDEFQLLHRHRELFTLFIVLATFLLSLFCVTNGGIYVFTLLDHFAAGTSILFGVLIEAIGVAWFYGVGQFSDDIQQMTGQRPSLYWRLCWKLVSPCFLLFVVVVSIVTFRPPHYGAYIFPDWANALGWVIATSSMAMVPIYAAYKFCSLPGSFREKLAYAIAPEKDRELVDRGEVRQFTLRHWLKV

SMILES: O=C(C[C@H](CCCc1ccc(Cl)cc1)C(=O)N[C@@H](CC1CCCCC1)C(=O)NCCc1ccccc1)NO
Activity [1]: 7.31 nM

SMILES: Fc1ccc(CNc2nccc(-c3c(-c4ccc(F)cc4)nc4occn34)n2)cc1
Activity [2]: 90.9 nM

SMILES: CC(C)C[C@H](NC(=O)[C@@H](C)NC(=O)[C@@H](Cc1ccccc1)NC(=O)OC(C)(C)C)C(O)CSC(C)C (single isomer, unassigned)
Activity [3]: 700 nM

SMILES: CCOC(=O)CN(c1cc(C)cc(OCCc2ccc(C(=N)N)cc2)c1)S(=O)(=O)c1ccccc1Cl
Activity [4]: 300 nM

SMILES: Cc1cccc(C[C@@H](NC(=O)C(c2ccccc2)c2ccccc2)C(=O)N[C@@H](C#N)COCc2ccccc2)c1
Activity [6]: 10.2 nM

SMILES: COc1ccc(NC(=O)C(CS)Cc2ccccc2)cc1 (centres undefined)
Activity [7]: 26 nM

SMILES: COc1ccc(NC(=O)NC2N=C(c3ccccc3)c3ccccc3N(C)C2=O)cc1 (centres undefined)
Activity [8]: 165 nM

SMILES: CCc1cc(-c2ccn[nH]2)c(O)cc1OCCCOc1ccc(CC(=O)O)cc1
Activity [10]: 54 nM

SMILES: C[C@@]12Cc3cnn(-c4ccc(F)cc4)c3C=C1CC[C@H]1C2=CC[C@H](C(F)(F)F)[C@H]1NCc1ccc(F)cc1
Activity [11]: 3 nM

SMILES: C=CCN(CC(=O)OCC)C(=O)/C(C)=C/c1ccc(C(=O)Nc2ccc(C(=N)N)cc2)cc1
Activity [10]: 65 nM

SMILES: CC(C)CC[C@@H](O)C(CC1CCCCC1)NC(=O)C(C)NC(=O)C(Cc1ccccc1)NC(=O)OC(C)(C)C (some centres undefined)
Activity [3]: 200 nM

SMILES: O=C(Nc1ncc([N+](=O)[O-])s1)C(c1ccccc1)c1ccccc1
Activity [12]: 250 nM

SMILES: COC(=O)N[C@H](C(=O)N(C)[C@@H](CN1CCCC1)c1ccccc1)c1ccccc1
Activity [13]: 178 nM

SMILES: CC(C)(C)OC(=O)N[C@@H](Cc1ccccc1)C(=O)N1CCN(C(c2ccc(F)cc2)c2ccc(F)cc2)CC1
Activity [12]: 250 nM

SMILES: CC(C)=CCCN1CCC(NC(=O)[C@@](O)(c2ccccc2)[C@H]2CCC(NC(=O)OCc3ccccc3)C2)CC1 (some centres undefined)
Activity [14]: 5.2 nM

SMILES: CN1CC[C@H](c2ccc(Cl)cc2)[C@H](CSCC(=O)NCCc2ccccc2)C1
Activity [15]: 23 nM

SMILES: CCCC1(C(=O)Nc2cccc(F)c2)CCc2c(c3ccccc3n2CC(=O)O)C1 (centres undefined)
Activity [16]: 22 nM

Further lines, results first:

Activity [1]: 325 nM
SMILES: O=C(CCC(NS(=O)(=O)c1ccc2oc3ccccc3c2c1)C(=O)O)NCCc1ccccc1 (centres undefined)

Activity [5]: 22 nM
SMILES: O=C(O)Cc1nn(CC(=O)Nc2cccc(F)c2)c(=O)c2ccccc12

Activity [9]: 2 nM
SMILES: O=C(Nc1ccccc1)NC1CC(C(=O)O)Nc2cc(Cl)cc(Cl)c21 (centres undefined)

Activity [7]: 12 nM
SMILES: O=C(O)C(Cc1ccccc1)NC(=O)[C@H](Cc1ccc2c(c1)oc1ccccc12)NCP(=O)(O)O (some centres undefined)

Activity [8]: 350 nM
SMILES: Cn1c(C(=O)Nc2ccccc2C(=O)NC(Cc2ccccc2)C(=O)O)cc2ccccc21 (centres undefined)

Activity [4]: 6.8 nM
SMILES: CC(C)(C)OC(=O)NC(C(=O)N1CCC[C@H]1C(=O)NCC1CCC(N)CC1)c1ccccc1 (some centres undefined)

Activity [17]: 530 nM
SMILES: N[C@@H](C(=O)O)[C@H]1[C@H](CNC(=O)Nc2ccccc2)[C@H]1C(=O)O
